Tests used:
hCB2-R = biological target: T1, hCB2-R (Homo sapiens, UniProt P34972); experiment: CB2 ligand binding assay ([3H]-CP55940 displacement, CHO-K1 membranes); settings: 0.3-0.5 nM [3H]-CP55940, CB2 membranes, 2 h at 30° C.; read-out: Binding constants (Ki) to hCB2-R
T1 construct: expressed in transfected cells; membranes
Description: (§1) The biological assays used were essentially set up as described in Munro, S., Thomas, K. L., Abu-Shaar, M. in “Molecular characterisation of a peripheral receptor for cannabinoids” Nature 365:61-65 (1993) and Kim, S. H. and Chung, J. M. in “An experimental model for peripheral neuropathy produced by segmental spinal nerve ligation in the rat” Pain 50:355-363 (1992).
Monoclonal HEK cell lines with stable expression of the human CB1 receptor and CHO-K1 cell lines with stable expression of hCB2-R were established. The CB binding assays were performed with membranes prepared from these cell lines. The CB2 ligand binding mixture contains 0.3-0.5 nM [^3H]-CP55940, 7 μg of CB2 membranes and the test compounds in a concentration range of from 1.0×10^−4 to 1.0×10^−12 M. The assay buffer comprises 50 mM Tris-HCl (pH 7.4), 5 MM MgCl2, 2.5 mM EDTA and 5 mg/ml fatty acid-free bovine serum albumin. The binding mixtures are incubated for 2 h at 30° C. and terminated by rapid filtration (Brandel 96 well cell harvester) over 934AH filters (Whatman) followed by 6 washes with ice-cold binding buffer. The filters are dried and [^3H]-CP55940 bound radioactivity is determined by liquid scintillation counting. Non-specific binding is determined in the presence of 10 μM CP55940. The binding data is analysed with the program GraphPad Prism (provided by GraphPad Software, San Diego, Calif., USA).

rats [1] = experiment: Formalin flinch test (inflammatory pain); type: in vivo; settings: rat; for A50 Formalin Phase II: inflammatory phase (10-60 min); for A50 Formalin Phase I: tonic phase (first 10 min)
Description: as §1
(§2) Inflammatory (Formalin flinch test) and chronic pain (L5/L6 nerve ligation injury) models were used as assays in both rats and mice.
Animals are habituated to the their local environment for about 30 min prior to testing. The formalin test is carried out in a 30×30×30 cm chamber with the front and bottom of the chambers made of clear plexiglass. Mirrors are placed at a 45° angle under the chambers in order to have an un-obstructive view of the paws. Animals are restrained manually and 2% formalin (aq) is injected subcutaneously into the planar surface of the left paw with a 30 gauge needle. The numbers of paw flinches are then recorded in 5 min intervals from the time of injection for a 60 min period. Elevations of the paw, licking and biting of the injected paw were counted as “flinches”. The tonic or “first phase” of the nociceptive response peaked at 5 min after formalin injection and the inflammatory or “second phase” peaked at 30 min after formalin injection. The number of flinches in the first 10 min were representative of the tonic phase and the number of flinches from 10 min until 60 min were representative of the inflammatory phase. Antinociception for both phase I and phase II was calculated as follows: % antinociception=100×(# of flinches in control animal−# of flinches in drug treated animal)/(# of flinches in control animal)
Potency (A50) is calculated from the full dose response curve for both phase I and phase II.

rats [2] = experiment: L5/L6 nerve ligation injury, tactile allodynia (von Frey); type: in vivo; settings: rat
Description: as §1, §2
Nerve ligation injury was performed according to the method described previously (Kim and Chung). This methodology produces signs of tactile allodynia and thermal hyperalgesia. Rats were anesthetized with halothane and the L5 and L6 spinal nerves were exposed, carefully isolated, and tightly ligated with 4-0 silk suture distal to the dorsal root ganglia (DRG). After ensuring homeostatic stability the wounds were sutured, and the animals were allowed to recover in individual cages. Sham-operated rats were prepared in an identical fashion except that the L5 and L6 spinal nerves were not ligated. Compound 17 was tested in rats after L5/L6 nerve ligation. […]
In the evaluation of the tactile allodynia, the paw withdrawal threshold was determined in response to probing with calibrated von Frey filaments. […] The 50% paw withdrawal threshold was determined by the nonparametric method. […]

rats [3] = experiment: L5/L6 nerve ligation injury, thermal hyperalgesia; type: in vivo; settings: rat
Description: as §1, §2
Nerve ligation injury was performed according to the method described previously (Kim and Chung). This methodology produces signs of tactile allodynia and thermal hyperalgesia. Rats were anesthetized with halothane and the L5 and L6 spinal nerves were exposed, carefully isolated, and tightly ligated with 4-0 silk suture distal to the dorsal root ganglia (DRG). After ensuring homeostatic stability the wounds were sutured, and the animals were allowed to recover in individual cages. Sham-operated rats were prepared in an identical fashion except that the L5 and L6 spinal nerves were not ligated. Compound 17 was tested in rats after L5/L6 nerve ligation. Compound administration was directly into the hind paw (i.paw) or into the peritoneal cavity (i.p.).

T1 sequence (P34972 whole entry): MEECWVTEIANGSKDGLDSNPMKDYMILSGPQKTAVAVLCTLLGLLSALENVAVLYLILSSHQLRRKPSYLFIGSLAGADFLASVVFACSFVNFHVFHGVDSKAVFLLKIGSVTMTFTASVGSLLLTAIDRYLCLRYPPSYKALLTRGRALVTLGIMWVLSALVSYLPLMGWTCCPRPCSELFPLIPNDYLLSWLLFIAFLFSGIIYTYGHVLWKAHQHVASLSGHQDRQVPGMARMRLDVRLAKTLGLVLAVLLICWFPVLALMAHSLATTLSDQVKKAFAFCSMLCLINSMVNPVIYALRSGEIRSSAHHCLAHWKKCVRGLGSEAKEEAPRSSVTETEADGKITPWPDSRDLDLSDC

Structure (SMILES) | Ki (hCB2-R) | other results
NC(=O)[C@@H]1CCCC[C@H]1N(CCCC1CCCCC1)C(=O)Nc1ccccc1 (relative stereo) [Compound 7, trans-2-[1-(3-cyclohexylpropyl)-3-phenylureido]cyclo-hexanecarboxamide] | 1500 nM | 
C[C@@H](C(=O)N(CCCC(N)=O)CCCC1CCCCC1)c1ccccc1 [Compound 1, (R)-4-[(3-cyclohexylpropyl)-(2-phenylpropionyl)amino]-butyramide] | 2900 nM | 
NC(=O)CCCN(CCCCCCc1ccccc1)C(=O)Nc1ccccc1 [Compound 2, 4-[3-phenyl-1-(6-phenylhexyl)ureido]butyramide] | 450 nM | 
CCCCc1ccc(CN(CCCC(N)=O)C(=O)Nc2ccccc2)cc1 [Compound 3, 4-[1-(4-butylbenzyl)-3-phenylureido]butyramide] | 120 nM | 
CC(C)c1ccc(CN(CCCC(N)=O)C(=O)Nc2ccccc2)cc1 [Compound 4, 4-[1-(4-isopropylbenzyl)-3-phenylureido]butyramide] | 780 nM | 
CC(C)CCCN(CCCC(N)=O)C(=O)Nc1ccccc1 [Compound 5, 4-[1-(4-methylpentyl)-3-phenylureido]butyramide] | 1100 nM | 
O=C(CCCN(CCCC1CCCCC1)C(=O)Nc1ccccc1)NCc1ccc(Cl)cc1 [Compound 6, N-(4-chlorobenzyl)-4-[1-(3-cyclohexylpropyl)-3-phenyl-ureido]butyramide] | 2200 nM | 
NC(=O)CCCN(CCCC1CCCCC1)C(=O)Cc1ccc2ccccc2c1 [Compound 8, 4-[(3-cyclohexylpropyl)-(2-naphthalen-2-yl-acetyl)amino]-butyramide] | 2700 nM | 
NC(=O)CCCCCCCN(CCCC1CCCCC1)C(=O)Cc1ccc2ccccc2c1 [Compound 9, 8-[(3-cyclohexylpropyl)-(2-naphthalen-2-yl-acetyl)amino]-octanamide] | 15000 nM | 
NC(=O)CCCN(CCCC1CCCCC1)C(=O)Nc1ccc2ccccc2c1 [Compound 10, 4-[1-(3-cyclohexylpropyl)-3-naphthalen-2-yl-ureido]-butyramide] | 1000 nM | 
NC(=O)CCCN(CCc1ccc2ccccc2c1)C(=O)Nc1ccccc1 [Compound 11, 4-[1-(2-naphthalen-2-yl-ethyl)-3-phenylureido]butyr-amide] | 770 nM | 
NC(=O)CCCN(CCC1CCCCC1)C(=O)Nc1ccccc1 [Compound 12, 4-[1-(2-cyclohexylethyl)-3-phenylureido]butyramide] | 410 nM | 
NC(=O)CCCN(CCc1ccccc1)C(=O)Nc1ccccc1 [Compound 13, 4-(1-phenethyl-3-phenylureido)butyramide] | 450 nM | 
NC(=O)CCCN(Cc1ccccc1)C(=O)Nc1ccccc1 [Compound 14, 4-(1-benzyl-3-phenylureido)butyramide] | 840 nM | 
NC(=O)CCCN(CCCC1CCCC1)C(=O)Nc1ccccc1 [Compound 15, 4-[1-(3-cyclopentylpropyl)-3-phenylureido]butyr-amide] | 210 nM | 
NC(=O)CCCN(CCCCCc1ccccc1)C(=O)Nc1ccccc1 [Compound 16, 4-[3-phenyl-1-(5-phenylpentyl)ureido]butyramide] | 130 nM | 
NC(=O)CCCN(CCCC1CCCCC1)C(=O)Nc1ccccc1 [Compound 17, 4-[1-(3-cyclohexylpropyl)-3-phenylureido]butyramide] | 110 nM | A50 Formalin Phase II (rats [1]; i. paw): 28 mg/paw; A50 Formalin Phase I (rats [1]; i. paw): <10 mg/paw; A50 Formalin Phase II (rats [1]; i.p.): 0.01 mg/kg; A50 Formalin Phase I (rats [1]; i.p.): <0.01 mg/kg; antiallodynic effect (rats [2]; L5/L6 nerve ligation, 100 μg (in 50 μl) into the paw): 90%; A50 L5/L6 anti-allodynia (rats [2]; i. paw): <30 mg/paw; antihyperalgesic response to the thermal testing (rats [3]; L5/L6 spinal nerve ligation, 30 μg (in 50 μl) into the paw): 100%; A50 L5/L6 anti-hyperalgesia (rats [3]; i. paw): <30 mg/paw
Cc1c(C(=O)c2cccc3ccccc23)c2cccc3c2n1[C@H](CN1CCOCC1)CO3 [WIN-55, 212-2, reference compound] |  | A50 Formalin Phase II (rats [1]; i. paw): 25 mg/paw; A50 Formalin Phase I (rats [1]; i. paw): 12 mg/paw

From patent US7504538B2, “Amide or thioamide derivatives and their use in the treatment of pain” (Cara Therapeutics, Inc., priority 2003, dated 2009)
